How the values were obtained:
[1] = test system: BJAB, Farage, SU-DHL4, and Riva cells; assay: Delayed drug effect viability: 24 h drug, washout, viability tracking over 6 days; format: cell-based, human
Description: (§1) For 24-48 hr assessments, cells were seeded at 5000 cells per well in a 96-well plate under serial drug dilutions. For delayed drug effect viability, cells were seeded at 500,000 cells per well in a 6-well plate on day 0 and treated with drug for 24 hrs, after which cells were washed ×2 and plated in normal cell media without drug. Viability was assessed using Cell Titer Glo (Promega #G7573) according to manufacturer's protocol. Luminescence was measured using BioTek Synergy HT plate reader. EC50s were calculated using nonlinear fit regression analysis in GraphPad Prism 8. Apoptosis assessment was conducted with BD Biosciences reagent (#559763) using Attune NxT flow cytometer.

DLBCL PDX tumor = settings: mouse, in vivo
Description: (§2) All animal studies were performed under the approval of the University of Miami Institutional Animal Care and Use committee. […] For tumor-bearing experiments, DLBCL PDX DFBL-75549 tumor model was obtained and engrafted mice through surgical dorsal tumor implantation. Tumor volume (TV) was measured by ultrasound (Vevo 3100, Visualsonics) with a predetermined survival endpoint of TV>1500 mm3. A continuous body weight loss of >20% was also a predetermined survival endpoint. For dose-finding experiments, mice were dosed intravenously on day 0, day 14, and day 24 and observed for changes in body weight. For R-nanoCHOP vs. R-CHOP tumor-bearing experiments, mice were dosed with all drugs intravenously once on day 1 of every 21 days, with exception to Prednisone administered orally. The following drug doses were used: Rituximab 20 mg/kg, Cyclophosphamide 40 mg/kg, Doxorubicin 3.3 mg/kg, CDT 33 mg/kg, Vincristine 0.5 mg/kg, Prednisone 0.2 mg/kg.

[2] = test system: murine B-lymphoma line A20; assay: 48-hour viability assay of A20 cells; format: cell-based; settings: Mus musculus
Description: as §1

BJAB cells = assay: Fluorescent confocal microscopy, nuclear colocalization in BJAB; format: cell-based, human; settings: 24 hours
Description: Cells were seeded at 50,000 cells per well in a 12-well plate and treated with either vehicle or drug. BJAB cells were fixed with 4% paraformaldehyde and permeabilized with 1% NP40 followed by staining for DAPI (Thermofisher Scientific, Waltham, Mass., USA). Cells were then imaged (60×) using a Leica DM4 B microscope. HEK293 cells had the nucleus stained for DAPI (Thermo #R37605) or GFP (Thermo #C10602) per the manufacturer protocol. Cells were live-imaged (63× objective) using Leica Sp5 confocal microscop and images collected and analyzed using ImageJ software.

in vivo = settings: mouse
Description: as §2
Formalin-fixed paraffin-embedded tissue sections, produced per standard protocols, were used to make H&E-stained and immunohistochemistry (IHC) pathology slides. Antibodies were used as per above, when applicable.

BJAB and Farage cells = assay: 48-hour viability with TFRC overexpression, holo-TF competition or dynasore; format: cell-based, human; settings: 15 μM, 50 μM
Description: as §1
Human TFRC cDNA (HsCD00044911) was purchased from the DNASU Plasmid Repository (Tempe, Ariz., USA) and was subsequently cloned into pLVX-IRES-ZsGreenl vector (Clontech Laboratories, Mountain View, Calif., USA). Recombinant plasmids, together with packaging/envelope plasmids psPAX2 and pMD2.G (Addgene, Cambridge, Mass., USA), were co-transfected into HEK293 cells using Lipofectamine 3000 (Invitrogen, Carlsbad, Calif., USA) following manufacturer's instructions. Cell media was changed at 24 hours after transfection, and viral particles collected at 48 hours and 72 hours post transfection.
For viral transduction, BJAB and Farage cells were infected with harvested virus by spinoculation. […]

Row | Compound | cell viability over time-course after washout [1] | anti-tumor efficacy (OS and tumor volume) (DLBCL PDX tumor) | body weight after two additional doses (DLBCL PDX tumor) | body weight nadir (DLBCL PDX tumor) [days] | return to starting weight (DLBCL PDX tumor) [days] | EC50 [2] [nM] | nuclear colocalization (BJAB cells) | MTD (in vivo; male, NOD scid gamma (NSG), iv) [mg/kg] | weight loss at MTD (in vivo) [%] | viability, single agent (BJAB and Farage cells)
1 | COc1cccc2c1C(=O)c1c(O)c3c(c(O)c1C2=O)C[C@@](O)(C(=O)CO)C[C@@H]3O[C@H]1C[C@H](N)[C@H](O)[C@H](C)O1 [Dox, doxorubicin] | seen only with much higher doses | relatively weak antitumor activity | irreversible weight loss | 8 | 10 to 14 | 10.6 | similar | 3.3 | ~20 | –
2 | O=C(N/N=C/c1ccc(O)c(O)c1)c1cc2ccccc2cc1O [dynasore, Dynasore] | – | – | – | – | – | – | – | – | – | negatively affected viability
